From patent US20240308988A1, “Method For Controlling Diamide Resistant Pests and Compounds Therefor” (priority 2021, published 2024)

Key:
[1] = test system: Plutella xylostella (Diamond back moth) ryanodine receptor, containing the G4946E resistance mutation; assay: In vitro calcium fluorescence assay (Fluo-8 NW, FDSS) in human embryonic kidney cells expressing the ryanodine receptor; format: cell-based; settings: table, EC50 (compound)/EC50 (cyantraniliprole), G4946E RyR in HEK cells
Procedure: Human embryonic kidney cells expressing the Plutella xylostella (Diamond back moth) ryanodine receptor, containing the G4946E resistance mutation, are loaded with Fluo-8 No Wash (NW) calcium-sensitive dye which responds by fluorescence to a change in intracellular calcium (e.g. stimulated by activation of ryanodine receptor). Test compounds are added in 10 rates to a 384-well plate containing dye-loaded cells and the fluorescent signal is measured using the Hamamatsu FDSS (Functional Drug Screening system). Dose-response curves are plotted to estimate the EC50. EC50 are normalized against an in-assay reference standard (cyantraniliprole) to address inter-assay variability. The ratio for a given compound is then obtained by the following formula:
REC50=EC50 (compound)/EC50 (cyantraniliprole).

[2] = test system: Resistant Plutella xylostella R4 (carries the RyR mutation G4946E); assay: Resistant Plutella xylostella R4 (Diamond back moth) larvicide L1, feeding/contact, artificial diet in 24-well plates; format: in vivo; settings: for pest or weed control at 50 µg/mL: Plutella xylostella, 192 h, read-out: control of the resistant strain of Plutella xylostella R4
Procedure: Resistant Plutella xylostella R4 (Diamond back moth) larvicide L1, feeding/contact 24-well microtiter plates with artificial diet were treated with aqueous test solutions prepared from 10′000 ppm DMSO stock solutions by pipetting. After drying, around 30 Plutella eggs were pipetted through a plastic stencil onto a gel blotting paper and the plate was closed with it. The samples were assessed for mortality in comparison to untreated samples 8 days after infestation.
Chlorantraniliprole was used as standard and a resistance factor of 242 was obtained for this strain
Plutella xylostella resistant strain R4 originated in the lab in 2021 from crossing the R1 strain with a lab-reared susceptible P. xylostella strain (SUS). R4 can be reared and tested on artificial diet and also carries the RyR mutation G4946E conferring resistance to diamides. The strain is selected approximately every two weeks with chlorantraniliprole. The following compounds, according to the present invention, gave at least 80% control of the resistant strain of Plutella xylostella R4 at 50 ppm or below: P11, P18, P26, P31, P33, P34, P36, P38, P42, P43, P46, P49, P50, P52, P56, P58, P60, P61, P63, P64, P65, P66, P67, P73, P76, P84, P97, P99, P102, P105.

[3] = test system: Resistant Plutella xylostella R1 (multi-resistant larvae having the G4946E resistance mutation); assay: Resistant Plutella xylostella R1 (Diamond back moth) larvicide L3, feeding/contact, sprayed Chinese cabbage leaves; format: in vivo; settings: for pest or weed control at 50 µg/mL: Plutella xylostella, 96 h, read-out: control of the resistant strain of Plutella xylostella R1
Procedure: Resistant Plutella xylostella R1 (Diamond back moth) larvicide L3, feeding/contact Chinese cabbage plants were sprayed with diluted test solutions in an application chamber. Cut off leaves were placed into petri dishes with wetted filter paper and infested 1 day after application with 10 L3 multi-resistant Plutella xylostella larvae having the G4946E resistance mutation.
Samples were assessed 4 days after infestation for mortality and growth regulation.
Chlorantraniliprole was used as standard and a resistance factor of 146 was obtained for this strain.
Plutella xylostella resistant strain R1 originally collected from Taiwan in 2012 that carries the RyR mutation G4946E conferring resistance to diamides. The strain is reared on cabbage plants (Brassica aleracea) and selected approximately every two weeks with chlorantraniliprole.

| SMILES | melting point [°C] | pest or weed control at 50 µg/mL [2] [%] | pest or weed control at 50 µg/mL [3] [%] | further results |
| --- | --- | --- | --- | --- |
| NC(=O)c1cc(Br)cc(Cl)c1NC(=O)c1cc(Cn2cc(C(F)(F)F)nn2)nn1-c1ncccc1Cl | 135 to 140 | – | – | – |
| NC(=O)c1cc(Cl)cc(Br)c1NC(=O)c1cc(Cn2cc(C(F)(F)F)nn2)nn1-c1ncccc1Cl | > 250 | – | – | – |
| Cc1cc(I)cc(C(N)=O)c1NC(=O)c1cc(C(F)F)nn1-c1ncccc1Cl | 155 to 160 | – | – | – |
| Cc1cc(Cl)cc(C(N)=O)c1NC(=O)c1cc(C2(F)CC2)nn1-c1ncccc1Cl | 225 to 230 | – | – | – |
| Cc1cc(Cl)cc(C(N)=O)c1NC(=O)c1cc(C[S+](C)[O-])nn1-c1ncccc1Cl (centres unmarked) | 125 to 130 | – | – | – |
| Cc1cc(Cl)cc(C(N)=O)c1NC(=O)c1cc(Br)nn1-c1ncccn1 | 187 to 198 | – | – | – |
| Cc1cc(Cl)cc(C(N)=O)c1NC(=O)c1cc(CS(C)(=O)=O)nn1-c1ncccc1Cl | 140 to 145 | – | – | – |
| COCc1cc(C(=O)Nc2c(C)cc(Cl)cc2C(N)=O)n(-c2ncccc2Cl)n1 | 225 to 230 | – | – | – |
| CNC(=O)c1cc(Cl)cc(C)c1NC(=O)c1cc(Br)nn1-c1ncccc1Cl [Chlorantraniliprole, chlorantraniliprole, reference compound] | – | – | – | REC50 (Comparative compound) ([1]; secondary amide analogue): 0.35; resistance factor ([2]; strain R4, chlorantraniliprole used as standard): 242; resistance factor ([3]; strain R1, chlorantraniliprole used as standard): 146 |
| Cc1cc(Cl)cc(C(N)=O)c1NC(=O)c1cc(COCc2ccc(Cl)cc2)nn1-c1ncccc1Cl [Compound P5, N-(2-carbamoyl-4-chloro-6-methyl-phenyl)-5-[(4-chlorophenyl)methoxymethyl]-2-(3-chloro-2-pyridyl)pyrazole-3-carboxamide] | 174 to 176 | – | – | REC50 (Compound of the invention) [1]: 0.31 |
| Cc1cc(Br)cc(C(N)=O)c1NC(=O)c1cc(C(F)(F)F)nn1-c1ncccc1Cl [Compound P26, N-(4-bromo-2-carbamoyl-6-methyl-phenyl)-2-(3-chloro-2-pyridyl)-5-(trifluoromethyl)pyrazole-3-carboxamide] | – | ≥ 80 | ≥ 80 | REC50 (Compound of the invention) [1]: 0.19 |
| Cc1cc(C#N)cc(C(N)=O)c1NC(=O)c1cc(C(F)(F)F)nn1-c1ncccc1Cl [Compound P31, N-(2-carbamoyl-4-cyano-6-methyl-phenyl)-2-(3-chloro-2-pyridyl)-5-(trifluoromethyl)pyrazole-3-carboxamide] | – | ≥ 80 | ≥ 80 | REC50 (Compound of the invention) [1]: 0.28 |
| NC(=O)c1cc(Cl)cc(Cl)c1NC(=O)c1cc(Br)nn1-c1ncc(Cl)cc1Cl [Compound P33, 5-bromo-N-(2-carbamoyl-4,6-dichloro-phenyl)-2-(3,5-dichloro-2-pyridyl) pyrazole-3-carboxamide] | – | ≥ 80 | ≥ 80 | REC50 (Compound of the invention) [1]: 0.31 |
| NC(=O)c1cc(Cl)cc(Br)c1NC(=O)c1cc(Br)nn1-c1ncccc1Cl [Compound P34, 5-bromo-N-(2-bromo-6-carbamoyl-4-chloro-phenyl)-2-(3-chloro-2-pyridyl) pyrazole-3-carboxamide] | – | ≥ 80 | ≥ 80 | REC50 (Compound of the invention) [1]: 0.18 |
| NC(=O)c1cc(Cl)cc(Cl)c1NC(=O)c1cc(I)nn1-c1ncccc1Cl [Compound P50, N-(2-carbamoyl-4,6-dichloro-phenyl)-2-(3-chloro-2-pyridyl)-5-iodo-pyrazole-3-carboxamide] | – | ≥ 80 | ≥ 80 | – |
| NC(=O)c1cc(Cl)cc(Cl)c1NC(=O)c1cc(Cn2nnc(-c3ccc(C(F)(F)F)cc3)n2)nn1-c1ncccc1Cl [Compound P58, N-(2-carbamoyl-4,6-dichloro-phenyl)-2-(3-chloro-2-pyridyl)-5-[[5-[4-(trifluoromethyl)phenyl]tetrazol-2-yl]methyl]pyrazole-3-carboxamide] | – | ≥ 80 | ≥ 80 | – |
| Cc1cc(I)cc(C(N)=O)c1NC(=O)c1cc(Br)nn1-c1ncccc1Cl [Compound P63, 5-bromo-N-(2-carbamoyl-4-iodo-6-methyl-phenyl)-2-(3-chloro-2-pyridyl) pyrazole-3-carboxamide] | – | ≥ 80 | ≥ 80 | REC50 (Compound of the invention) [1]: 0.19 |
| Cc1cc(C#N)cc(C(N)=O)c1NC(=O)c1cc(Cn2nnc(-c3ccc(C(F)(F)F)cc3)n2)nn1-c1ncccc1Cl [Compound P67, N-(2-carbamoyl-4-cyano-6-methyl-phenyl)-2-(3-chloro-2-pyridyl)-5-[[5-[4-(trifluoromethyl)phenyl]tetrazol-2-yl]methyl]pyrazole-3-carboxamide] | – | ≥ 80 | ≥ 80 | REC50 (Compound of the invention) [1]: 0.63 |
| Cc1cc(Cl)cc(C(N)=O)c1NC(=O)c1cc(C2CC2)nn1-c1ncccc1Cl [Compound P76, N-(2-carbamoyl-4-chloro-6-methyl-phenyl)-2-(3-chloro-2-pyridyl)-5-cyclopropyl-pyrazole-3-carboxamide] | – | ≥ 80 | ≥ 80 | REC50 (Compound of the invention) [1]: 0.42 |

Second part, led by results:

| melting point [°C] | SMILES | pest or weed control at 50 µg/mL [2] [%] | pest or weed control at 50 µg/mL [3] [%] | further results |
| --- | --- | --- | --- | --- |
| 109 to 112 | Cc1cc(C#N)cc(C(N)=O)c1NC(=O)c1cc(COCc2ccc(Cl)cc2)nn1-c1ncccc1Cl [Compound P12, N-(2-carbamoyl-4-cyano-6-methyl-phenyl)-5-[(4-chlorophenyl)methoxymethyl]-2-(3-chloro-2-pyridyl)pyrazole-3-carboxamide] | – | – | – |
| 190 to 195 | Cc1cc(Br)cc(C(N)=O)c1NC(=O)c1cc(Cn2cc(C(F)(F)F)nn2)nn1-c1ncccc1Cl [Compound P35, N-(4-bromo-2-carbamoyl-6-methyl-phenyl)-2-(3-chloro-2-pyridyl)-5-[[4-(trifluoromethyl)triazol-1-yl]methyl] pyrazole-3-carboxamide] | – | – | – |
| 185 to 190 | NC(=O)c1cc(Br)cc(Cl)c1NC(=O)c1cc(Cn2ncc(C(F)(F)F)n2)nn1-c1ncccc1Cl [Compound P37, N-(4-bromo-2-carbamoyl-6-chloro-phenyl)-2-(3-chloro-2-pyridyl)-5-[[4-(trifluoromethyl)triazol-2-yl]methyl]pyrazole-3-carboxamide] | – | – | – |
| > 250 | Cc1cc(Br)cc(C(N)=O)c1NC(=O)c1cc(I)nn1-c1ncccc1Cl [Compound P39, N-(4-bromo-2-carbamoyl-6-methyl-phenyl)-2-(3-chloro-2-pyridyl)-5-iodo-pyrazole-3-carboxamide] | – | – | – |
| 110 to 115 | NC(=O)c1cc(Br)cc(F)c1NC(=O)c1cc(Cn2nnc(C(F)(F)F)n2)nn1-c1ncccc1Cl [Compound P41, N-(4-bromo-2-carbamoyl-6-fluoro-phenyl)-2-(3-chloro-2-pyridyl)-5-[[5-(trifluoromethyl)tetrazol-2-yl]methyl]pyrazole-3-carboxamide] | – | – | – |
| 205 to 210 | COc1cc(C(=O)Nc2c(Br)cc(Cl)cc2C(N)=O)n(-c2ncccc2Cl)n1 [Compound P55, N-(2-bromo-6-carbamoyl-4-chloro-phenyl)-2-(3-chloro-2-pyridyl)-5-methoxy-pyrazole-3-carboxamide] | – | – | – |
| 180 to 185 | Cc1cc(Cl)cc(C(N)=O)c1NC(=O)c1cc(CC#N)nn1-c1ncccc1Cl [Compound P70, N-(2-carbamoyl-4-chloro-6-methyl-phenyl)-2-(3-chloro-2-pyridyl)-5-(cyanomethyl)pyrazole-3-carboxamide] | – | – | – |
| 225 to 230 | Cc1cc(Cl)cc(C(N)=O)c1NC(=O)c1cc(C2(C#N)CC2)nn1-c1ncccc1Cl [Compound P72, N-(2-carbamoyl-4-chloro-6-methyl-phenyl)-2-(3-chloro-2-pyridyl)-5-(1-cyanocyclopropyl)pyrazole-3-carboxamide] | – | – | – |
| 175 to 180 | CSCc1cc(C(=O)Nc2c(C)cc(Cl)cc2C(N)=O)n(-c2ncccc2Cl)n1 [Compound P79, N-(2-carbamoyl-4-chloro-6-methyl-phenyl)-2-(3-chloro-2-pyridyl)-5-(methylsulfanylmethyl)pyrazole-3-carboxamide] | – | – | – |
